# Read-outs that look alike come from different tables or passages of the source.
# What was measured:
# C. parvum = assay: microbe, parasite or virus in culture; format: cell-based, Cryptosporidium parvum; details: for EC90: HCT-8, read-out: C. parvum EC90
# [1] = Hepatocyte intrinsic clearance, mouse; format: in vitro ADME; details: mouse hepatocytes
# FaSSIF solubility = format: physicochemical; details: Fasted State Simulated Intestinal Fluid
# [2] = Plasma protein binding, bovine; format: in vitro ADME; details: calf plasma, PPB assay, read-out: fraction unbound (fu)
# Rat pharmacokinetics = format: in vivo; details: for half-life / Vd / AUC / Cmax / Tmax / bioavailability: male, Hans Wistar, whole blood; for half-life / Vd: 3 mg/kg, rat, IV; for half-life: read-out: T½ (converted); for Vd: read-out: Vdss; for bioavailability: read-out: F (oral bioavailability); for CLB: rat IV, clearance in blood
# Method: Rat pharmacokinetics (Dundee)
# As for mice except using male Hans Wistar rats (IV dose volume 1 mL/kg; PO dose volume: […]
# Pharmacokinetic parameters were
# derived from the blood concentration-time curve using WinNonLin Professional Software v
# 6.3 (Pharsight Corporation). […]
# KRS-A309L = assay: Transgenic C. parvum NanoLuciferase drug sensitivity assay, KRS-A309L; format: cell-based; details: Cryptosporidium parvum, HCT-8, 48 h, read-out: EC50, KRS-A309L
# HsKRS = target: T1, HsKRS (Homo sapiens, UniProt Q15046); assay: HsKRS in vitro enzyme assay; format: biochemical; details: mean (95% confidence interval)
# T1 construct: made in house
# T1 sequence (Q15046 whole entry): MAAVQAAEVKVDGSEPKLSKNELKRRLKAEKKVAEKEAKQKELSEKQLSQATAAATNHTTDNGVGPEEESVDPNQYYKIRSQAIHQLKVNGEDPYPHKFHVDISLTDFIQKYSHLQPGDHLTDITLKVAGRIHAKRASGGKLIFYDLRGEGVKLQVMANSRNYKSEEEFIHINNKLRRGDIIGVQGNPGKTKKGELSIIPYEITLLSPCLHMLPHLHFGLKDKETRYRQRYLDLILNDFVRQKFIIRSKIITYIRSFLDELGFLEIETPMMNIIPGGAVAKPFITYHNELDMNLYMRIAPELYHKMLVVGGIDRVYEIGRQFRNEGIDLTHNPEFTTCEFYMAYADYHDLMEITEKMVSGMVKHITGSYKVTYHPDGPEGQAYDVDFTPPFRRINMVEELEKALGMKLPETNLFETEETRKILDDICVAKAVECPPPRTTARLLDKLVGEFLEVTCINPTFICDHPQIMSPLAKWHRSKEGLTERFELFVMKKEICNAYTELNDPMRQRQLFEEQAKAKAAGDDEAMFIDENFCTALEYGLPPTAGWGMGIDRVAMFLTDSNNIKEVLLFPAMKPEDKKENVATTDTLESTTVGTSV
# [3] = Hepatocyte intrinsic clearance, dog; format: in vitro ADME; details: dog hepatocytes
# [4] = Liver microsomal intrinsic clearance, mouse; format: in vitro ADME; details: mouse liver microsomes
# C. hominis = C. hominis growth inhibition in HCT-8 co-culture (image-based); details: Cryptosporidium hominis, HCT-8, 48 h, read-out: C. hominis EC50
# Method: Cryptosporidium in vitro inhibition (Vermont and Dundee)
# Compounds were prepared in 100% DMSO and added at the time of infection (NLuc) or 3 hours post infection (imaging assays). Compounds were prepared at 1% final concentration DMSO in culture. Parasites were quantified at 48 hours post infection. NanoLuciferase was measured using a GloMax Discovery, Promega.
# A Nikon Ecl ipse Ti2000 epifluorescence microscope with an automated stage was programmed to focus on the center of each well and take a 3×3 composite image using an EXi blue fluorescence microscopy camera (QImaging) with a 20X objective (NA = 0.45). Nuclei and parasite images were separately exported as .tif files, and parasites and host cells were counted using custom NIH ImageJ macros as reported previously.(29) Dose−response curves were
# CYP450 2C9 = CYP450 2C9 (Homo sapiens, UniProt P11712); assay: CYP450 inhibition 2C9; format: in vitro ADME
# Chain of CYP450 2C9 (P11712 whole entry): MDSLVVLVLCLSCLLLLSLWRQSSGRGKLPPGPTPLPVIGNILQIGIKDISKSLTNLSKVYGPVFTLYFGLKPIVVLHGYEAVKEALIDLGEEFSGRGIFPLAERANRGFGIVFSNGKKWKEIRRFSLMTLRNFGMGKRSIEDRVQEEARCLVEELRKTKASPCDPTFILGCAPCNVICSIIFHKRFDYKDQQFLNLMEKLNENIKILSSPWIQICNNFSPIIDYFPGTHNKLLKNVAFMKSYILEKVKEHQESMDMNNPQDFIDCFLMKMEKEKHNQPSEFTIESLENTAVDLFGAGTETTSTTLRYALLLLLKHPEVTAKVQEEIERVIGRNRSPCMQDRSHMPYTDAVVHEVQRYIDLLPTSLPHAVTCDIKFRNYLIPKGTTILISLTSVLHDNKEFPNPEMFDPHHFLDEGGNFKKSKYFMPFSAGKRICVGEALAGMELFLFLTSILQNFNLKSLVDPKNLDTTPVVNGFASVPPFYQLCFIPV
# Method: (§1) CYP450 inhibition (Dundee)
# (§2) As previously described.(31)
# (§3) DDD489 and DDD508 were evaluated for their ability to induce reverse mutations both in the presence and absence of S9 mix at the histidine locus in the genome of four strains of Salmonella typhimurium (TA98, TA100, TA1535, and TA97a) and at the tryptophan locus in the genome of Escherichia coli WP2 uvrA in a mini-Ames study conducted at WuXi App Tec […]
# (§4) hERG inhibition (WuXi App Tec)
# (§5) DDD489 and DDD508 were evaluated for their effects on cloned hERG potassium channels stably expressed in Chinese Hamster Ovary (CHO) cells using manual patch-clamp technique in a hERG inhibition assay conducted at WuXi App Tec (Suzhou).
# (§6) Mitochondrial toxicity (Cyprotex)
# (§7) DDD489 and DDD508 were evaluated for their effects on mitochondrial function in a functional mitochondrial toxicity assay using Seahorse XFe96 flux analyser conducted at […]
# (§8) 44 screen safety panel (Eurofins)
# (§9) DDD489 was evaluated for off-target effects in a SafetyScreen44 panel at Eurofins Cerep.
# (§10) All regulated procedures, at the University of Dundee, on living animals were carried out under the authority of a project license issued by the Home Office under the Animals (Scientific Procedures) Act 1986, as amended in 2012 (and in compliance with EU Directive EU/2010/63). […]
# [5] = Plasma protein binding, human; format: in vitro ADME; details: read-out: PPB (h) (converted)
# [6] = Plasma protein binding, mouse; format: in vitro ADME; details: mouse PPB assay, read-out: fraction unbound (fu)
# HepG2 = HepG2 in vitro cytotoxicity; format: cell-based, human; details: for EC50: Homo sapiens, HepG2, cytotoxicity; for Cellular selectivity: ratio of mean HepG2/C. parvum EC50
# [7] = Hepatocyte intrinsic clearance, rat; format: in vitro ADME; details: rat hepatocytes
# CYP450 1A2 = CYP450 1A2 (Homo sapiens, UniProt P05177); assay: CYP450 inhibition 1A2; format: in vitro ADME
# Chain of CYP450 1A2 (P05177 whole entry): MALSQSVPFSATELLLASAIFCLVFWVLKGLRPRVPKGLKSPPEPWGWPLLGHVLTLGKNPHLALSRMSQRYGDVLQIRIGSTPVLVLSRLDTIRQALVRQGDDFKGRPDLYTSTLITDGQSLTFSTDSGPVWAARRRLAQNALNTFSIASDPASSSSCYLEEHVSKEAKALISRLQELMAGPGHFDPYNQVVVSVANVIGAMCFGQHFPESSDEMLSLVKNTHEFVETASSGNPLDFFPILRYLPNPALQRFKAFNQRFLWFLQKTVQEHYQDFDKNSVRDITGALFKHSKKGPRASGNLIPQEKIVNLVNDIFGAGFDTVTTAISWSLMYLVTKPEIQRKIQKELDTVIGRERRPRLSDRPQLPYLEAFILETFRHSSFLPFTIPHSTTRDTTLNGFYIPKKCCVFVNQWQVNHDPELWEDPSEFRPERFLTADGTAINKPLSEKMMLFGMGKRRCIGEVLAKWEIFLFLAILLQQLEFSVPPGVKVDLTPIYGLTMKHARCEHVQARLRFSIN
# Method: as §1, §2, §3, §4, §5, §6, §7, §8, §9, §10
# [8] = Plasma protein binding, rat; format: in vitro ADME; details: read-out: PPB (r) (converted)
# wild type parasites (WT) = assay: Transgenic C. parvum NanoLuciferase drug sensitivity assay, WT; format: cell-based; details: Cryptosporidium parvum, HCT-8, 48 h, read-out: EC50, WT
# mitochondrial function = assay: Functional mitochondrial toxicity assay (Seahorse XFe96); format: cell-based
# Calf tolerability study = format: in vivo; details: 15 mg/kg twice daily oral 7 days
# Method: Calf efficacy and tolerability study
# Calf tolerability study (Moredun Scientific)
# A tolerability study was conducted on uninfected calves prior to efficacy studies to confirm palatability and tolerance. Starting at day 2 post birth (“Day 1”), DDD489 or DDD508 were administered to four male calves per treatment group. The test compound was dosed at 15 mg/kg (maximum volume of 20 ml per occasion; prepared in vehicle: 0.5% HPMC, 0.4% Tween 80, 0.5% Benzyl alcohol in sterile water) for a total of 7 days. Administration was by oral gavage twice daily immediately prior to milk feeds, and at least 8 hours apart (± 30 minutes). Body weight was measured on day 0 and day 7, and clinical observations were recorded twice a day during dosing. Blood samples were collected from all animals prior to the morning treatment on Day 1, then 5 (± 2) minutes, 15 (± 2) minutes, 30 (± 5) minutes, 1, 2, 4, 8 and 24 hours (± 10 minutes) post first daily dose. This sample schedule was repeated on Day 7 for the same animals. Blood samples were processed to plasma. […]
# [9] = Hepatocyte intrinsic clearance, human; format: in vitro ADME; details: human hepatocytes
# [10] = system: Salmonella typhimurium (TA98, TA100, TA1535, and TA97a) and Escherichia coli WP2 uvrA; assay: Mini-Ames; format: cell-based; details: presence and absence of S9 mix
# hERG potassium channels = target: T2, hERG potassium channels (Homo sapiens, UniProt Q12809); assay: hERG inhibition, manual patch-clamp; format: cell-based; details: CHO cells
# T2 construct: host or cells: Chinese Hamster Ovary (CHO) cells
# T2 sequence (Q12809 whole entry): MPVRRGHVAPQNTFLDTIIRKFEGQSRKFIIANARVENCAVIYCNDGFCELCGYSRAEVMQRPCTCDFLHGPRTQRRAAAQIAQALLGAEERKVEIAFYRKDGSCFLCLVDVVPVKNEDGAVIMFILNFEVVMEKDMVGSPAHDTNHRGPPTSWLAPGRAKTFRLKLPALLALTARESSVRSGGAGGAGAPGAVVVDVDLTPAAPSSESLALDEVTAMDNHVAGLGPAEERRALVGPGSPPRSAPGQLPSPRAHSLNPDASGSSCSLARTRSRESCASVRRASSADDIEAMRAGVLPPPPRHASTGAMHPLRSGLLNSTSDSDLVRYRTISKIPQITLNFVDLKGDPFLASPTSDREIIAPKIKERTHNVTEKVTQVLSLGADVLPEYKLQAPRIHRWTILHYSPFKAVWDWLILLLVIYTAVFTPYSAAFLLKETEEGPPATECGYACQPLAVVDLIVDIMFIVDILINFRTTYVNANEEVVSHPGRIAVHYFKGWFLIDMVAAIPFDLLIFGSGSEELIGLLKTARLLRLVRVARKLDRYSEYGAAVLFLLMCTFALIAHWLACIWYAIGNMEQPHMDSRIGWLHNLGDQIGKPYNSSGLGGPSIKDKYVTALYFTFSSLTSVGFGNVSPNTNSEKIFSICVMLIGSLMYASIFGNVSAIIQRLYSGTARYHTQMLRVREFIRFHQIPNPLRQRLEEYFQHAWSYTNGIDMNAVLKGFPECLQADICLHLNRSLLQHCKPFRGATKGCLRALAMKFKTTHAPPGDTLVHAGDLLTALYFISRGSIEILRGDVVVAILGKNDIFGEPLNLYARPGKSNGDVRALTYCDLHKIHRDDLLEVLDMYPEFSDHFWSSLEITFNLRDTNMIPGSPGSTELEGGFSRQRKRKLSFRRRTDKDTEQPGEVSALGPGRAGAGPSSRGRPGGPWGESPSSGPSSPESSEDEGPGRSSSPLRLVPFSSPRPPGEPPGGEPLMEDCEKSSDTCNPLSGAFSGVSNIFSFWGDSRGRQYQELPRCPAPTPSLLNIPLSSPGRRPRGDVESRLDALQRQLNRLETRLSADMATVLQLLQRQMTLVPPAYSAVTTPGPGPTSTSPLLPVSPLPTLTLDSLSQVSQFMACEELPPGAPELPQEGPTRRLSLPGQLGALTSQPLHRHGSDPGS
# Method: as §4
# DDD489 and DDD508 were evaluated for their effects on cloned hERG potassium channels stably expressed in Chinese Hamster Ovary (CHO) cells using manual patch-clamp technique in a hERG inhibition assay conducted at WuXi App Tec (Suzhou). […]
# [11] = Cryptosporidium parvum, HCT-8, 48 h, read-out: C. parvum EC50, co-cultured with HCT-8 cells for 48 hrs
# [12] = read-out: C. parvum EC50, co-cultured with HCT-8 cells for 48 hrs
# [13] = rat IV (DDD489 2.8, DDD508 3.47 mg/kg)
# [14] = read-out: Oxygen consumption AC50
compound,measurement,setting,value
Nc1nc2c(c(C(F)(F)F)n1)C(=O)N(CC1CCCC(C(F)(F)F)C1)C2 (stereo not shown) [DDD489],EC50,C. parvum; [11],0.043 µM
same,EC90,C. parvum; Cryptosporidium parvum,0.1 µM
same,EC50,C. parvum; [12],0.04 µM
same,Heps CLi (m),[1],10 mL/min/g
same,solubility,FaSSIF solubility,48 µM
same,fraction unbound,[2],0.26
same,half-life,Rat pharmacokinetics,1.2 h
same,Vd,Rat pharmacokinetics,3.2 L/kg
same,AUC,Rat pharmacokinetics; [13],1200 ng·h/mL
same,AUC,Rat pharmacokinetics; rat PO 10 mg/kg,137 ng·h/mL
same,Cmax,Rat pharmacokinetics; rat PO 10 mg/kg,30 ng/mL
same,Tmax,Rat pharmacokinetics; rat PO 10 mg/kg,2 h
same,bioavailability,Rat pharmacokinetics; rat PO 10 mg/kg,3.2%
same,CLB,Rat pharmacokinetics,39 mL/min/kg
same,EC50,KRS-A309L,8.63 µM
same,IC50,HsKRS,22 µM
same,Heps CLi (d),[3],1.8 mL/min/g
same,Mics CLi (m),[4],12 mL/min/g
same,EC50,C. hominis,0.04 µM
same,IC50,CYP450 2C9,32 µM
same,fraction unbound,[5],0.23
same,fraction unbound,[6],0.16
same,EC50,HepG2,18 µM
same,Cellular selectivity,HepG2,450 fold
same,Heps CLi (r),[7],1.9 mL/min/g
same,IC50,CYP450 1A2,40 µM
same,fraction unbound,[8],0.42
same,EC50,wild type parasites (WT),0.085 µM
same,Extracellular acidification rate AC50,mitochondrial function,No response
same,Reserve capacity AC50,mitochondrial function,No response
same,AC50,mitochondrial function; [14],> 100 µM
same,tolerability in uninfected calves,Calf tolerability study,well tolerated
same,Heps CLi (h),[9],1.1 mL/min/g
same,Mini-Ames (4 strains ± S9),[10],Negative
same,IC50,hERG potassium channels,> 30 µM
O=C(NCC1(O)CCCCC1)c1cc(=O)c2cc(O)ccc2o1 [DDD508],EC50,C. parvum; [11],0.132 µM
same,EC90,C. parvum; Cryptosporidium parvum,0.38 µM
same,EC50,C. parvum; [12],0.13 µM
same,Heps CLi (m),[1],3.7 mL/min/g
same,solubility,FaSSIF solubility,325 µM
same,fraction unbound,[2],0.53
same,half-life,Rat pharmacokinetics,0.6 h
same,Vd,Rat pharmacokinetics,2.1 L/kg
same,AUC,Rat pharmacokinetics; [13],900 ng·h/mL
same,AUC,Rat pharmacokinetics; rat PO 10 mg/kg,367 ng·h/mL
same,Cmax,Rat pharmacokinetics; rat PO 10 mg/kg,100 ng/mL
same,Tmax,Rat pharmacokinetics; rat PO 10 mg/kg,1 h
same,bioavailability,Rat pharmacokinetics; rat PO 10 mg/kg,14%
same,CLB,Rat pharmacokinetics,64 mL/min/kg
same,EC50,KRS-A309L,9.93 µM
same,IC50,HsKRS,10 µM
same,Heps CLi (d),[3],1.2 mL/min/g
same,Mics CLi (m),[4],1.4 mL/min/g
same,EC50,C. hominis,0.1 µM
same,IC50,CYP450 2C9,> 100 µM
same,fraction unbound,[5],0.42
same,fraction unbound,[6],0.6
same,EC50,HepG2,18 µM
same,Cellular selectivity,HepG2,140 fold
same,Heps CLi (r),[7],1.1 mL/min/g
same,IC50,CYP450 1A2,> 100 µM
same,fraction unbound,[8],0.47
same,EC50,wild type parasites (WT),0.27 µM
same,Extracellular acidification rate AC50,mitochondrial function,No response
same,AC50,mitochondrial function; [14],> 100 µM
same,AC50,mitochondrial function; read-out: Reserve capacity AC50,> 100 µM
same,tolerability in uninfected calves,Calf tolerability study,well tolerated
same,Heps CLi (h),[9],< 0.5 mL/min/g
same,Mini-Ames (4 strains ± S9),[10],Negative
same,IC50,hERG potassium channels,> 30 µM

# Reference: article PMC7617456, “Cryptosporidium lysyl-tRNA synthetase inhibitors define the interplay between solubility and permeability required to achieve efficacy” (Science translational medicine, 2024)
